Where two headings read alike, the source gives them in different places.
What was measured:
[1] = design: method as in PMID 23183235; conditions: 3H-CLR01 IV, 12-m old WT and 3×Tg AD mice; cited from earlier work
[2] = In vitro dephosphorylation by brain homogenate (inorganic phosphate release); type: in vitro ADME, mouse; conditions: 50 nmol CLR01, 1.5 mg mouse-brain homogenate, 60 min at 60°C
Protocol: Potential dephosphorylation of CLR01 was analyzed by incubating 100 nmol CLR01 with 0.08 units of alkaline phosphatase (ALP; calf intestinal alkaline phosphatase, Promega, Madison, Wisconsin) for 60 min at 60°C. One enzymatic unit is defined as the amount of enzyme required for catalyzing the hydrolysis of 1 μmol of p-nitrophenylphosphate per minute. p-Nitrophenylphosphate disodium salt at 5–50 nmol (Fisher, Waltham, Massachusetts) was used for generation of a standard curve. The amount of inorganic phosphate generated was measured spectrophotometrically using an EnzChek Phosphate Assay kit (Life Technologies, Carlsbad, California) according to the manufacturer’s instructions on a DU-640 spectrophotometer (Beckman Coulter, Brea, California) at λ = 360 nm. Baseline values were subtracted from readings and compared to the standard curve resulting from serial ALP reactions to calculate the amount of inorganic phosphate. Similarly, potential dephosphorylation of CLR01 by brain homogenates was measured. For these experiments, one brain hemisphere was homogenized by sonication in the presence of cOmplete protease-inhibitor cocktail (Roche, Penzberg, Germany). Protein concentration was measured using a BCA Protein Assay Kit (Pierce, Rockford, Illinois). […]

[3] = design: method as in Lopes et al., submitted; conditions: SC pumps; ref Lopes et al., submitted; cited from earlier work
[4] = target: alcohol dehydrogenase (ADH); design: method as in PMID 18605724; conditions: ADH concentration of 208 nM; cited from earlier work
primary neurons = tested on: primary neurons; design: method as in PMID 23183235; conditions: cited from earlier work
[5] = design: method as in PMID 18605724, PMID 23750919; conditions: cited from earlier work
[6] = design: method as in PMID 23183235; conditions: human liver microsomes; cited from earlier work
[7] = tested on: nerve growth factor-differentiated rat pheochromocytoma cells; design: method as in PMID 21916458, PMID 22860214; conditions: cited from earlier work
[8] = design: method as in PMID 23183235; conditions: human plasma; cited from earlier work
porcine brain tubulin = target: T1, porcine brain tubulin (Sus scrofa, UniProt P02550+P02554); experiment: Inhibition of tubulin polymerization (turbidity, absorbance at 340 nm); type: biochemical
T1 construct: porcine brain tubulin; purchased Cytoskeleton, Inc., Denver, Colorado; host or cells: porcine brain (tissue-purified)
Protocol: The effect of CLR01 on tubulin polymerization was analyzed using a commercial kit (Cytoskeleton, Inc., Denver, Colorado). Three mg/ml porcine brain tubulin (~18 μM) were allowed to polymerize at 37 °C in the absence or presence of CLR01 concentrations ranging from 10–1,000 μM. The turbidity of the solution was measured as absorbance at λ = 340 nm using a Synergy HT microplate reader (BioTek, Winooski, VT). The data are an average of three independent experiments with two wells per condition.
As stated above, the mechanism by which CLR01 remodels the assembly of amyloidogenic proteins into non-toxic assemblies that can be degraded by normal clearance mechanisms is by its specific binding to Lys residues. The mechanism is “process-specific” because it is postulated to affect only the aberrant assembly of proteins that leads to toxic oligomers and aggregates, but not normal protein structure, function, or assembly as happens, e.g., in tubulin polymerization. To test whether this indeed is the case, we examined the effect of CLR01 on tubulin polymerization. Three mg/ml (~18 μM) porcine brain tubulin, which contains 3.8% Lys and 4.8% Arg, was allowed to polymerize in the absence or presence of CLR01 concentrations ranging from 10–1,000 μM.

[9] = tested on: cytochrome P450 system, five major isoforms; design: method as in PMID 23183235; conditions: half-maximal inhibition concentration values above levels expected to cause drug–drug interactions; cited from earlier work

T1 sequence (P02550 whole entry): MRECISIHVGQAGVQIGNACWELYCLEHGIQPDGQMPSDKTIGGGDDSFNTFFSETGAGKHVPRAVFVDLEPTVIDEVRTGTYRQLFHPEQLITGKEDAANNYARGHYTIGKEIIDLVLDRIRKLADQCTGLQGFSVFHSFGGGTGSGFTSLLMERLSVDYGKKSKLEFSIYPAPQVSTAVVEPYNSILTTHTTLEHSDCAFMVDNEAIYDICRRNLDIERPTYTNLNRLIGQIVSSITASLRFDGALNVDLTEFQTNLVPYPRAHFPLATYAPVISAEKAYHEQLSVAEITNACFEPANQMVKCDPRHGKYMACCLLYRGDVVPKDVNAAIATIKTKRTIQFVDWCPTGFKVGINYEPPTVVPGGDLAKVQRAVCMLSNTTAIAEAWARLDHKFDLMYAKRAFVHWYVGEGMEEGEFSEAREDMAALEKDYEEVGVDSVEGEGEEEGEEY
T1 sequence (P02554 whole entry): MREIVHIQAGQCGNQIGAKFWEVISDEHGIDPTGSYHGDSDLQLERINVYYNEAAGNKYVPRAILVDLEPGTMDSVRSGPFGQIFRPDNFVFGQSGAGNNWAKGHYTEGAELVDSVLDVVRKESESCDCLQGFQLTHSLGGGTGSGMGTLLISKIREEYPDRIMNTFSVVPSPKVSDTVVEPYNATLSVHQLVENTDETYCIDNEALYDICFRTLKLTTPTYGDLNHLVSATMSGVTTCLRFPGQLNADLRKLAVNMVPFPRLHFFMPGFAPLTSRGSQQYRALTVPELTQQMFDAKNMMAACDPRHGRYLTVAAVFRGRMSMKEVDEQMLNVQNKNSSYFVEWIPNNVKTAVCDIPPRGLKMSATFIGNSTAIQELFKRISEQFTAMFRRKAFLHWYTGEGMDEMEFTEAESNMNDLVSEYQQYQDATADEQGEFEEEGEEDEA

## O=P(O)(O)Oc1c2c(c(OP(=O)(O)O)c3c1C1CC3c3cc4c(cc31)C1CC4c3ccccc31)C1CC2c2cc3c(cc21)C1CC3c2ccccc21 [CLR01]
[1]
  Radioactivity levels in the brain, % of blood levels: ~ 2%
[2]
  Inorganic phosphate released on incubation with brain homogenate: no release of inorganic phosphate was detected
[3]
  Administered CLR01 in the blood at steady-state: 0.7%
[4]
  IC50: 180 µM
Primary neurons
  Protection of primary neurons from Aβ-induced effects: protected primary neurons from Aβ-induced decrease in synaptic spine density, basal synaptic activity, and long-term potentiation
[5]
  Affinity for Arg relative to Lys, fold lower: ~ 10 fold
[6]
  Stability: 100%
[7]
  Concentration at which a mild decrease in cell viability was observed: 400 µM
  Concentration up to which no toxicity was detected: up to 200 μM
[8]
  Stability: 100%
Porcine brain tubulin
  Concentration ratio for disruption of tubulin polymerization relative to ratios needed for inhibition of aggregation of amyloidogenic proteins: 20–50 times higher
Porcine brain tubulin; 1,000 μM CLR01, 0.05-0.09 without or with up to 300 μM
  Absorbance observed immediately (λ = 340 nm): 0.15 absorbance units
Porcine brain tubulin; 3 mg/ml (~18 μM) tubulin, 37 °C
  Concentrations that did not significantly affect the polymerization of tubulin: up to 300 μM
Porcine brain tubulin; 3 mg/ml (~18 μM) tubulin, 37 °C, CLR01 tested at 10–1,000 μM
  Concentration at which significant modulation of tubulin polymerization was observed: 1,000 μM
[9]
  Inhibition of five major cytochrome P450 isoforms: minimal inhibition

Source: PMC3996151, “Safety and pharmacological characterization of the molecular tweezer CLR01 – a broad-spectrum inhibitor of amyloid proteins’ toxicity” (BMC Pharmacology & Toxicology, 2014)
